Results on 8 compounds are retold here after patent US20240174714A1, “TREATMENT OF SKIN DISORDERS” (priority 2021, published 2024).

Converted amounts (≈) assume the structure as drawn. Numbered stars: 1 amine (or outer) side, 2 acyl side, 3 side chain; on linkers, the order of the positions; unused ones are H or OH. Square brackets hold non-standard residues; d marks the D form. Peptide text beside a SMILES is read from it. * marks the point of attachment. X13 = O=C([C@H](Cc1nc2ccc(F)cc2s1)N[*:1])[*:2]; X14 = COc1ccc(C[C@H](N[*:1])C(=O)[*:2])cc1Cl; Ala(thiazol-2-yl) = N[C@@H](Cc1nccs1)C(=O)O; NH(1-CH2NMe2-cBu) = CN(C)CC1(N*)CCC1; Gly(octyl) = CCCCCCCC[C@H](N)C(=O)O; Oxazole4CO(2-Me) = Cc1nc(C(=O)*)co1; Benzoyl(4-F) = O=C(c1ccc(F)cc1)*; hCha = N[C@@H](CCC1CCCCC1)C(=O)O; X2 = C1CCN(CC2(N*)CCC2)CC1; NHCH2CH2NHMe = CNCCN*; Aib = CC(C)(N)C(=O)O; X1 = COCCN(CCN*)CCOC; βAla = NCCC(=O)O

What is called IC50 is the point on the concentration scale where inhibition reaches its midpoint.

Data set [1] deals with Staphylococcus aureus ATCC 43300, MRSA. In kind it is cell-based. The settings on record: ATCC 43300, 18 h. How it is done:
The antibacterial activity of inventive compounds was evaluated in duplicate in a further Minimum Inhibitory Concentration (MIC) assay.
Bacteria were cultured in Cation-adjusted Mueller Hinton broth (CAMHB) at 37° C. overnight. A sample of each culture was then diluted 40-fold in fresh broth and incubated at 37° C. for 1.5-3 h. The resultant mid-log phase cultures were diluted (CFU/mL measured by OD600), then added to each well of the compound containing plates, giving a cell density of 5×10^5 CFU/mL and a total volume of 50 μL. All the plates were covered and incubated at 37° C. for 18 h without shaking.
Samples were prepared in DMSO and serially diluted 2 fold 8 times. Each sample concentration was prepared in 384-well plates, non-binding surface plate (NBS; Corning 3640) for the bacterial strain ATCC 43300, MRSA. The final DMSO concentration was at a maximum of 0.5%.
Inhibition of bacterial growth was determined measuring absorbance at 600 nm (OD600), using a Tecan M1000 Pro monochromator plate reader. The percentage of growth inhibition was calculated for each well, using the negative control (media only) and positive control (bacteria without inhibitors) on the same plate as references. […] Vancomycin was used as positive bacterial inhibitor standards.

Data set [2] concerns Staphylococcus aureus ATCC BAA-1556, USA300 MRSA. As to the kind of experiment: microbe, parasite or virus in culture. In kind it is cell-based. The settings on record: ATCC BAA-1556. The method, then:
Pre-formulated compound solution was diluted in 100% DMSO to prepare a 1.6 mg/mL working stock solution. […] The concentration range was 0.032 to 32 μg/mL.

The nature of data set [3]: Cytotoxicity assay (Alamar Blue) on L6-cells. In kind it is cell-based, rat. To be noted: rat. The method, then: Tests were done in triplicate.
The plates were incubated for additional 2 h.
(In general: Resazurin is reduced to fluorescent resorufin, in cell work by metabolically active cells.)

The test system of data set [4] is axenic Leishmania donovani MHOM-ET-67/L82 amastigotes. As to the kind of experiment: In vitro antiprotozoal assay, axenic amastigotes. It counts as cell-based. The settings on record: axenic amastigotes; read-out: L.don.ax. IC50.
Method: (§1) The testing of the inventive compounds against Leishmania donovani (strain MHOM/ET/67/L82) was performed in 96 well plates at concentrations in serial dilutions. Tests were done in triplicate.
Data set [5] has as its system intracellular Leishmania donovani MHOM-ET-67/L82 amastigotes. As to the kind of experiment: In vitro antiprotozoal assay, intracellular amastigotes. In kind it is cell-based. To be noted: intracellular amastigotes; read-out: L.don.InMac IC50.
Method: as §1

As for `Cc1nc(C(=O)N2CCCC2C(=O)N[C@@H](CCC2CCCCC2)C(=O)N[C@@H](CC(C)C)C(=O)NC(C)(C)C(=O)N[C@@H](CC(C)C)C(=O)N[C@@H](CC(C)C)C(=O)NC(C)(C)C(=O)NC(C)(C)C(=O)NCCC(=O)NCCN)co1` (stereo in doubt) [Compound 7192, (2S)-N-(1-{[(1S)-1-{[(1S)-1-[(1-{[1-({2-[(2-aminoethyl)carbamoyl]ethyl}carbamoyl)-1-methylethyl]carbamoyl}-1-methylethyl)carbamoyl]-3-methylbutyl]carbamoyl}-3-methylbutyl]carbamoyl}-1-methylethyl)-2-[(2S)-4-cyclohexyl-2-{[(2S)-1-(2-methyl-1,3-oxazole-4-carbonyl)pyrrolidin-2-yl]formamido}butanamido]-4-methylpentanamide], the figures for the “MIC” value in data set [1] and in data set [2] were 8 µg/mL (≈ 7.28 µM) and 16 µg/mL (≈ 14.6 µM), respectively.
`Cc1nc(C(=O)N2CCC[C@H]2C(=O)N[C@@H](CCC2CCCCC2)C(=O)N[C@@H](CC(C)C)C(=O)NC(C)(C)C(=O)N[C@@H](CC(C)C)C(=O)N[C@@H](CC(C)C)C(=O)NC(C)(C)C(=O)NC(C)(C)C(=O)NCCC(=O)NC2(CN3CCCCC3)CCC2)co1` [Compound 6483, (2S)-2-[(2S)-4-cyclohexyl-2-{[(2S)-1-(2-methyl-1,3-oxazole-4-carbonyl)pyrrolidin-2-yl]formamido}butanamido]-4-methyl-N-(1-methyl-1-{[(1S)-3-methyl-1-{[(1S)-3-methyl-1-({1-methyl-1-[(1-methyl-1-{[2-({1-[(piperidin-1-yl)methyl]cyclobutyl}carbamoyl)ethyl]carbamoyl}ethyl)carbamoyl]ethyl}carbamoyl)butyl]carbamyl}butyl]carbamoyl}ethyl)pentanamide] ({Oxazole4CO(2-Me)}-P[hCha]L[Aib]LL[Aib][Aib][βAla]-X2): half-maximal inhibition in data set [3] (IC50 at 68 h) was put at 486 nM. For the same compound, in data set [4], the IC50 was 4.1 nM. Besides, the “MIC” value in data set [1] and in data set [2] was 8 µg/mL (≈ 6.62 µM) throughout.
As to `Cc1nc(C(=O)N2CCC[C@H]2C(=O)N[C@@H](Cc2c[nH]c3ccccc23)C(=O)N[C@@H](CC(C)C)C(=O)NC(C)(C)C(=O)N[C@@H](CC(C)C)C(=O)N[C@@H](CC(C)C)C(=O)NC(C)(C)C(=O)NC(C)(C)C(=O)NCCC(=O)NC2(CN(C)C)CCC2)co1` [Compound 6779, (2S)-N-(1-{[(1S)-1-{[(1S)-1-({1-[(1-{[2-({1-[(dimethylamino)methyl]cyclobutyl}carbamoyl)ethyl]carbamoyl}-1-methylethyl)carbamoyl]-1-methylethyl}carbamoyl)-3-methylbutyl]carbamoyl}-3-methylbutyl]carbamoyl}-1-methylethyl)-2-[(2S)-3-(1H-indol-3-yl)-2-{[(2S)-1-(2-methyl-1,3-oxazole-4-carbonyl)pyrrolidin-2-yl]formamido}propanamido]-4-methylpentanamide] (HELM PEPTIDE1{[Cc1nc(C(=O)[*:2])co1].P.W.L.[Aib].L.L.[Aib].[Aib].[bAla].[CN(C)CC1(N[*:1])CCC1]}$$$$V2.0), the midpoint of inhibition in data set [3], the IC50 at 68 h, lay at 6680 nM. The IC50 was found to be 27 nM in data set [4] and 203 nM in data set [5]. Besides, the “MIC” value in data set [1] came to 8 µg/mL (≈ 6.74 µM).
In the case of `COCCN(CCNC(=O)CCNC(=O)C(C)(C)NC(=O)C(C)(C)NC(=O)[C@H](CC(C)C)NC(=O)[C@H](CC(C)C)NC(=O)C(C)(C)NC(=O)[C@H](CC(C)C)NC(=O)[C@H](CCC1CCCCC1)NC(=O)[C@@H]1CCCN1C(=O)c1coc(C)n1)CCOC` [Compound 6791, (2S)-N-(1-{[(1S)-1-{[(1S)-1-({1-[(1-{[2-({2-[bis(2-methoxyethyl)amino]ethyl}carbamoyl)ethyl]carbamoyl}-1-methylethyl)carbamoyl]-1-methylethyl}carbamoyl)-3-methylbutyl]carbamoyl}-3-methylbutyl]carbamoyl}-1-methylethyl)-2-[(2S)-4-cyclohexyl-2-{[(2S)-1-(2-methyl-1,3-oxazole-4-carbonyl)pyrrolidin-2-yl]formamido}butanamido]-4-methylpentanamide] ({Oxazole4CO(2-Me)}-P[hCha]L[Aib]LL[Aib][Aib][βAla]-X1), the IC50 at 68 h in data set [3] was 8230 nM. Besides, the IC50 is 2.1 nM in data set [4] and 179 nM in data set [5]. Besides, the “MIC” value in data set [2] came out at 32 µg/mL (≈ 26.3 µM).
Compound `CCCCCCCC[C@H](NC(=O)[C@@H]1CCCN1C(=O)c1coc(C)n1)C(=O)N[C@@H](CC(C)C)C(=O)NC(C)(C)C(=O)N[C@@H](CC(C)C)C(=O)N[C@@H](CC(C)C)C(=O)NC(C)(C)C(=O)NC(C)(C)C(=O)NCCC(=O)NCCNC` [Compound 7058, (2S)-2-{[(2S)-1-(2-methyl-1,3-oxazole-4-carbonyl)pyrrolidin-2-yl]formamido}-N-[(1S)-3-methyl-1-[(1-methyl-1-{[(1S)-3-methyl-1-{[(1S)-3-methyl-1-{[1-methyl-1-({1-methyl-1-[(2-{[2-(methylamino)ethyl]carbamoyl}ethyl)carbamoyl]ethyl}carbamoyl)ethyl]carbamoyl}butyl]carbamoyl}butyl]carbamoyl}ethyl)carbamoyl]butyl]decanamide] ({Oxazole4CO(2-Me)}-P[Gly(octyl)]L[Aib]LL[Aib][Aib][βAla]-NHCH2CH2NHMe) yielded an IC50 at 68 h in data set [3] of 5040 nM. For the same compound, the IC50 in data set [4] was determined as 23.8 nM; in data set [5], 2620 nM. Moreover, the “MIC” value in data set [2] was determined as 4 µg/mL (≈ 3.59 µM).
Turning to `CC(C)C[C@H](NC(=O)[C@H](Cc1nccs1)NC(=O)[C@@H]1CCCN1C(=O)c1ccc(F)cc1)C(=O)NC(C)(C)C(=O)N[C@@H](CC(C)C)C(=O)N[C@@H](CC(C)C)C(=O)NC(C)(C)C(=O)NC(C)(C)C(=O)NCCC(=O)NC1(CN(C)C)CCC1` [Compound 7842, (2S)-N-(1-{[(1S)-1-{[(1S)-1-({1-[(1-{[2-({1-[(dimethylamino)methyl]cyclobutyl}carbamoyl)ethyl]carbamoyl}-1-methylethyl)carbamoyl]-1-methylethyl}carbamoyl)-3-methylbutyl]carbamoyl}-3-methylbutyl]carbamoyl}-1-methylethyl)-2-[(2S)-2-{[(2S)-1-(4-fluorobenzoyl)pyrrolidin-2-yl]formamido}-3-(1,3-thiazol-2-yl)propanamido]-4-methylpentanamide] ({Benzoyl(4-F)}-P[Ala(thiazol-2-yl)]L[Aib]LL[Aib][Aib][βAla]-{NH(1-CH2NMe2-cBu)}), the “MIC” value in data set [1] is 32 µg/mL (≈ 27.4 µM).
As for `COc1ccc(C[C@H](NC(=O)[C@@H]2CCCN2C(=O)c2ccc(F)cc2)C(=O)N[C@@H](CC(C)C)C(=O)NC(C)(C)C(=O)N[C@@H](CC(C)C)C(=O)N[C@@H](CC(C)C)C(=O)NC(C)(C)C(=O)NC(C)(C)C(=O)NCCC(=O)NC2(CN(C)C)CCC2)cc1Cl` [Compound 7846, (2S)-2-[(2S)-3-(3-chloro-4-methoxyphenyl)-2-{[(2S)-1-(4-fluorobenzoyl)pyrrolidin-2-yl]formamido}propanamido]-N-(1-{[(1S)-1-{[(1S)-1-({1-[(1-{[2-({1-[(dimethylamino)methyl]cyclobutyl}carbamoyl)ethyl]carbamoyl}-1-methylethyl)carbamoyl]-1-methylethyl}carbamoyl)-3-methylbutyl]carbamoyl}-3-methylbutyl]carbamoyl}-1-methylethyl)-4-methylpentanamide] ({Benzoyl(4-F)}-P[X14]L[Aib]LL[Aib][Aib][βAla]-{NH(1-CH2NMe2-cBu)}), the “MIC” value in data set [1] turned out to be 4 µg/mL (≈ 3.27 µM).
As to `CC(C)C[C@H](NC(=O)[C@H](Cc1nc2ccc(F)cc2s1)NC(=O)[C@@H]1CCCN1C(=O)c1ccc(F)cc1)C(=O)NC(C)(C)C(=O)N[C@@H](CC(C)C)C(=O)N[C@@H](CC(C)C)C(=O)NC(C)(C)C(=O)NC(C)(C)C(=O)NCCC(=O)NC1(CN(C)C)CCC1` [Compound 7848, (2S)-N-(1-{[(1S)-1-{[(1S)-1-({1-[(1-{[2-({1-[(dimethylamino)methyl]cyclobutyl}carbamoyl)ethyl]carbamoyl}-1-methylethyl)carbamoyl]-1-methylethyl}carbamoyl)-3-methylbutyl]carbamoyl}-3-methylbutyl]carbamoyl}-1-methylethyl)-2-[(2S)-3-(6-fluoro-1,3-benzothiazol-2-yl)-2-{[(2S)-1-(4-fluorobenzoyl)pyrrolidin-2-yl]formamido}propanamido]-4-methylpentanamide] ({Benzoyl(4-F)}-P[X13]L[Aib]LL[Aib][Aib][βAla]-{NH(1-CH2NMe2-cBu)}), in data set [1], the “MIC” value amounted to 4 µg/mL (≈ 3.24 µM).
